# Measured values reported in patent publication US20190367516A1 (Bayer Pharma Aktiengesellschaft, priority 2015, published 2019).
# Where two headings read alike, the source gives them in different places.
# Legend:
# [1] = biological target: T1, Human Recombinant M2 Muscarinic Acetylcholine Receptor (Homo sapiens, UniProt P08172); experiment: Selectivity test, Ca2+ release (Eurofins GPCRProfiler): allosteric modulator assay, M2 (B-3.2); format: cell-based; conditions: for Selectivity (Shift EC50 M2/Shift EC50 M4): Table 2, quotient of allosteric shifts M2/M4; for Selectivity (Shift EC50 M2/Shift EC50 M1): Table 3, quotient of allosteric shifts M2/M1
# T1 sequence (P08172 1-466): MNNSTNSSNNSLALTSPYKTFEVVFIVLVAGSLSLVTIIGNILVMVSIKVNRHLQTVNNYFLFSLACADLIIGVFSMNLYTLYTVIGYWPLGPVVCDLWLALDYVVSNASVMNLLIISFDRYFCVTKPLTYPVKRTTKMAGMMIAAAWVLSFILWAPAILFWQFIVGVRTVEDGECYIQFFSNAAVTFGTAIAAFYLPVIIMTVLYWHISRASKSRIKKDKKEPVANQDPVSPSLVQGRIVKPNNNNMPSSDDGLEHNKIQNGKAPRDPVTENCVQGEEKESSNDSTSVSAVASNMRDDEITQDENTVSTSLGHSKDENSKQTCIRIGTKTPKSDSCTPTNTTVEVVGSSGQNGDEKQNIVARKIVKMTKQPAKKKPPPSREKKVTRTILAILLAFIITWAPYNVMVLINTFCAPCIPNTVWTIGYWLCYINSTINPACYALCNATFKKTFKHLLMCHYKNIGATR
# Procedure: B-3. Selectivity Test with Respect to Human Muscarinic Acetylcholine Receptors
# Any potentially agonistic effect, or else positive allosteric effect, of the test substances on other human muscarinic acetylcholine receptors can be determined in a functional Ca^2+ release test (Eurofins; GPCRProfiler® Services in agonistic and allosteric mode for Mx Receptors; cat#: HTS600GPCR).
# The substance test is conducted with a FLIPR^TETRA instrument (Molecular Devices).
# After the agonism assay has ended, the assay plate is incubated at 25° C. for 7 min. After the incubation period, the positive allosteric modulator assay is initialized.
# B-3.2. Allosteric Modulator Assay
# In order to examine any positive or negative allosteric effect of the test substances on other human muscarinic acetylcholine receptors and the M2 receptor itself, every substance concentration is combined with an acetylcholine 8-point dose-response curve. Addition of agonist solution is again followed in turn by the measurement of cell fluorescence for a period of 180 sec. The shift in the acetylcholine dose-response curve (maximum shift in the EC50 of acetylcholine) is analysed and quantified by means of GraphPad PRISM (Sigmoidal dose-response (variable slope)−EC50). Finally, quotients of the allosteric shift for the M2 receptor and M4 receptor are formed, which function in turn as a measure of the respective selectivity.
# human M2 receptor [2] = biological target: T2, human M2 receptor (Homo sapiens, UniProt P08172); format: cell-based; conditions: α >1 = positive cooperativity
# T2 sequence (P08172 1-466): T1 sequence (P08172 1-466)
# human M2 receptor [3] = biological target: T2, human M2 receptor
# anaesthetized rats = experiment: Effects on the heart rate in anaesthetized rats (B-9); format: in vivo, rat; conditions: i.v. infusion via jugular vein over 5 min, dose not given, in some cases means of several determinations
# Procedure: B-9. Effects of the Test Substances on the Heart Rate in Anaesthetized Rats
# Male rats of the strain (WI) WU Br from the breeder Charles River are anaesthetized initially with a 4-5% isoflurane inhalation for approx. 3 min. Subsequently, anaesthesia is maintained using a 1.5% isoflurane inhalation. For this purpose, the anaesthetized animals are fixed on a heated operating plate. By means of visual inspection and between toe reflex, the depth of anaesthesia is checked.
# For the application of the test substance, an i.v. route into the jugular vein is used. A caudal to cranial skin incision is then made longitudinally and both the cervical musculature and the salivary glands are severed. The right common carotid artery is exposed and blood supply is arrested both proximally and distally. Using microinstrumentation, a TIP catheter (1.2 F) is introduced into the vessel in order to measure the arterial pressure and the heart rate.
# Initially, both parameters are monitored for 10 min in the basal state without substance addition. The substances to be investigated are dissolved in suitable solvent mixtures and subsequently administered at various dosages to a group of animals in each case via the jugular vein by an infusion pump over 5 min. A solvent-treated group is used as control under the same experimental conditions. The arterial blood pressure and heart rate with substance addition is determined for 20 min. The data are registered with the PowerLab system (AD instruments) and evaluated using the LabChart program (AD instruments).
# The values determined in this manner for the percentage decrease in heart rate for individual working examples are given in Table 4 below (in some cases as means of a plurality of independent individual determinations): […]
# [4] = test substance concentration 1 μM
# [5] = test substance concentration 10 μM
# [6] = shift in the acetylcholine dose-response curve (Allosteric EC50 shift, GraphPad PRISM)
# [7] = Receptor activity EC50, M2-GIRK1/4 activation test, acetylcholine at EC20, allosteric potency, in some cases mean values from two or more determinations
# [8] = shift of acetylcholine dose-response curve (Allosteric EC50 shift)
# [9] = Receptor activity EC50, allosteric potency at EC20 acetylcholine, M2-GIRK1/4 reporter cells, in some cases mean of two or more determinations
# [10] = read-out: Efficiency, boosting of the acetylcholine effect at EC20 acetylcholine concentration, M2-GIRK1/4 reporter cells
Structure (SMILES),"Selectivity (Shift EC50 M2/Shift EC50 M4) [1, 4]","Selectivity (Shift EC50 M2/Shift EC50 M4) [1, 5]","Selectivity (Shift EC50 M2/Shift EC50 M1) [1, 5]",Cooperativity (alpha factor) (human M2 receptor [2]; [6]),EC50 (human M2 receptor [3]; [7]),Emax (human M2 receptor [3]; read-out: Efficiency),Reduction in heart rate (%) (anaesthetized rats),Cooperativity (alpha factor) (human M2 receptor [2]; [8]),EC50 (human M2 receptor [3]; [9]),Emax (human M2 receptor [3]; [10])
CC[C@@H](NC(=O)c1cn(-c2ccc(F)cc2F)c2nc(N3C[C@@H](O)CC3=O)ccc2c1=O)C(F)(F)F [Example 175],29,83,287,33,69 nM,97.3%,6%,,,
"O=C(N[C@@H](C1CC1)C(F)(F)F)c1cn(-c2c(F)cc(F)cc2F)c2nc(N3CCNC3=O)ccc2c1=O [Example 323, N-[(1 S)-1-Cyclopropyl-2,2,2-trifluoroethyl]-4-oxo-7-(2-oxoimidazolidin-1-yl)-1-(2,4,6-trifluorophenyl)-1,4-dihydro-1,8-naphthyridine-3-carboxamide]",52,44,31,16,14 nM,,13%,,,
"C[C@H](NC(=O)c1cn(-c2c(F)cc(F)cc2F)c2nc(N3C[C@@H](O)CC3=O)ccc2c1=O)C(F)(F)F [Example 330, 7-[(4S)-4-Hydroxy-2-oxopyrrolidin-1-yl]-4-oxo-1-(2,4,6-trifluorophenyl)-N-[(2S)-1,1,1-trifluoropropan-2-yl]-1,4-dihydro-1,8-naphthyridine-3-carboxamide]",,,,29,41 nM,,9%,,,
"CC[C@H](NC(=O)c1cn(-c2c(F)cc(F)cc2F)c2nc(N3C[C@@H](O)CC3=O)ccc2c1=O)C(F)(F)F [Example 332, 7-[(4S)-4-Hydroxy-2-oxopyrrolidin-1-yl]-4-oxo-N-[(2S)-1,1,1-trifluorobutan-2-yl]-1-(2,4,6-trifluorophenyl)-1,4-dihydro-1,8-naphthyridine-3-carboxamide]",,,,37,20 nM,99.2%,11%,,,
"O=C(N[C@H](C1CC1)C(F)(F)F)c1cn(-c2c(F)cc(F)cc2F)c2nc(N3CCNC3=O)ccc2c1=O [Example 342, N-[(1R)-1-Cyclopropyl-2,2,2-trifluoroethyl]-4-oxo-7-(2-oxoimidazolidin-1-yl)-1-(2,4,6-trifluorophenyl)-1,4-dihydro-1,8-naphthyridine-3-carboxamide]",,,,13,11 nM,,10%,,,
"CC(C)(C)[C@@H](NC(=O)c1cn(-c2c(F)cc(F)cc2F)c2nc(N3C[C@@H](O)[C@H](O)C3)ccc2c1=O)C(F)(F)F [Example 349, 7-[(3R,4R)-3,4-Dihydroxypyrrolidin-1-yl]-4-oxo-N-[(2R)-1,1,1-trifluoro-3,3-dimethylbutan-2-yl]-1-(2,4,6-trifluorophenyl)-1,4-dihydro-1,8-naphthyridine-3-carboxamide]",,,,52,4 nM,100%,14%,,,
"CC(C)(CC(F)(F)F)NC(=O)c1cn(-c2c(F)cc(F)cc2F)c2nc(N3C[C@@H](O)[C@H](O)C3)ccc2c1=O [Example 370, 7-[(3R,4R)-3,4-Dihydroxypyrrolidin-1-yl]-4-oxo-N-(4,4,4-trifluoro-2-methylbutan-2-yl)-1-(2,4,6-trifluorophenyl)-1,4-dihydro-1,8-naphthyridine-3-carboxamide]",,,,32,14 nM,,12%,,,
"O=C(N[C@H](C1CC1)C(F)(F)F)c1cn(-c2c(F)cc(F)cc2F)c2nc(N3C[C@@H](O)CC3=O)ccc2c1=O [Example 386, N-[(1R)-1-Cyclopropyl-2,2,2-trifluoroethyl]-7-[(4S)-4-hydroxy-2-oxopyrrolidin-1-yl]-4-oxo-1-(2,4,6-trifluorophenyl)-1,4-dihydro-1,8-naphthyridine-3-carboxamide]",,,,39,9 nM,,13%,,,
"O=C(N[C@@H](C1CC1)C(F)(F)F)c1cn(-c2c(F)cc(F)cc2F)c2nc(N3C[C@@H](O)CC3=O)ccc2c1=O [Example 404, N-[(1 S)-1-Cyclopropyl-2,2,2-trifluoroethyl]-7-[(4S)-4-hydroxy-2-oxopyrrolidin-1-yl]-4-oxo-1-(2,4,6-trifluorophenyl)-1,4-dihydro-1,8-naphthyridine-3-carboxamide]",,,,,,,9%,35,7 nM,98.3%
"CC[C@@H](NC(=O)c1cn(-c2c(F)cc(F)cc2Cl)c2nc(N3C[C@@H](O)CC3=O)ccc2c1=O)C(F)(F)F [Example 407, 1-(2-Chloro-4,6-difluorophenyl)-7-[(4S)-4-hydroxy-2-oxopyrrolidin-1-yl]-4-oxo-N-[(2R)-1,1,1-trifluorobutan-2-yl]-1,4-dihydro-1,8-naphthyridine-3-carboxamide]",,,,,,,13%,32,7 nM,98.5%
"O=C(N[C@H](C1CC1)C(F)(F)F)c1cn(-c2c(F)cc(F)cc2Cl)c2nc(N3C[C@@H](O)CC3=O)ccc2c1=O [Example 414, 1-(2-Chloro-4,6-difluorophenyl)-N-[(1R)-1-cyclopropyl-2,2,2-trifluoroethyl]-7-[(4S)-4-hydroxy-2-oxopyrrolidin-1-yl]-4-oxo-1,4-dihydro-1,8-naphthyridine-3-carboxamide]",,,,,,,16%,40,9 nM,100%
"CC(C)(CC(F)(F)F)NC(=O)c1cn(-c2c(F)cc(F)cc2F)c2nc(N3C[C@@H](O)CC3=O)ccc2c1=O [Example 511, 7-[(4S)-4-Hydroxy-2-oxopyrrolidin-1-yl]-4-oxo-N-(4,4,4-trifluoro-2-methylbutan-2-yl)-1-(2,4,6-trifluorophenyl)-1,4-dihydro-1,8-naphthyridine-3-carboxamide]",,,,,,,10%,30,9 nM,100%
"O=C(N[C@@H](C1CC1)C(F)(F)F)c1cn(-c2c(F)cc(F)cc2F)c2nc(N3C[C@@H](O)[C@H](O)C3)ccc2c1=O [Example 590, N-[(1S)-1-Cyclopropyl-2,2,2-trifluoroethyl]-7-[(3R,4R)-3,4-dihydroxypyrrolidin-1-yl]-4-oxo-1-(2,4,6-trifluorophenyl)-1,4-dihydro-1,8-naphthyridine-3-carboxamide]",7,33,30,,,100%,13%,43,15 nM,
